Data as given in patent publication US20140309210A1, “INDAZOLE COMPOUNDS, COMPOSITIONS AND METHODS OF USE THEREOF” (Genentech, Inc., priority 2011, published 2014).
pKi: −log10 of the molar value.

Target: T1, purified ITK (Invitrogen PV3875) (Homo sapiens, UniProt Q08881)
T1 construct: purchased Invitrogen PV3875
T1 sequence (Q08881 1-620): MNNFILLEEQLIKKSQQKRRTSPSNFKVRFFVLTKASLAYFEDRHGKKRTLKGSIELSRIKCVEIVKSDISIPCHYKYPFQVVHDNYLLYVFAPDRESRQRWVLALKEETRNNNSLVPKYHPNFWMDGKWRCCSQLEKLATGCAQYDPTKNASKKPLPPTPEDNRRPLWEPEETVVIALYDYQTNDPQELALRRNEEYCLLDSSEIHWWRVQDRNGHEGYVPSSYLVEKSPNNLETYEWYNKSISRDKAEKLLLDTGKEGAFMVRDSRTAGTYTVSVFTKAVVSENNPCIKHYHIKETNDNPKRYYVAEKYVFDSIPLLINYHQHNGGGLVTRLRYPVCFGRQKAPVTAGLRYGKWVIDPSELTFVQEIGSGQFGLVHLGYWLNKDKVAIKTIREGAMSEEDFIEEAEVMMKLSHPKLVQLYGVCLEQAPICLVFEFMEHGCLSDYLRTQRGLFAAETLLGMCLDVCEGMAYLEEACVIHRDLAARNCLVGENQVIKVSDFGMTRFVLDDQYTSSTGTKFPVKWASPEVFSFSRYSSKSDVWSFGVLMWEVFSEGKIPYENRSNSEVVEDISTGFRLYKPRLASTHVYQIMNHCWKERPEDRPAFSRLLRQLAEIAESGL
Test: ITK peptide phosphorylation assay (Caliper LabChip or LCMS)
Assay type: biochemical
Conditions: Table 1, Examples 141-279
Summary of the method: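 Purified human ITK peptide phosphorylation, quenched with EDTA (50 mM final) for Caliper LabChip separation or TCA (5% v/v final) for UPLC-MS/MS MRM quantification. Ki derived via Morrison tight-binding equation, corrected for competitive inhibition using ATP concentration relative to Km,app.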

SMILES | pKi
COC(=O)C(c1ccccc1)n1cc(NC(=O)c2n[nH]c3ccccc23)cn1 (stereo not shown) [Example 255, methyl 2-[4-(1H-indazole-3-carbonylamino)py-razol-1-yl]-2-phenyl-acetate] | 7.42
O=C(Nc1cnn(C(CO)c2ccccc2)c1)c1n[nH]c2ccccc12 (stereo not shown) [Example 256, N-[1-(2-hydroxy-1-phenyl-ethyl)pyrazol-4-yl]-1H-indazole-3-carboxamide] | 6.84
CNCCC(c1ccccc1)n1cc(NC(=O)c2n[nH]c3ccccc23)cn1 (stereo not shown) [Example 264, N-[1-[3-(methylamino)-1-phenyl-propyl]pyrazol-4-yl]-1H-indazole-3-carboxamide] | 7.26
CC(=O)N(C)CCC(c1ccccc1)n1cc(NC(=O)c2n[nH]c3ccccc23)cn1 (stereo not shown) [Example 266, N-[1-[3-[acetyl(methyl)a-mino]-1-phenyl-propyl]pyrazol-4-yl]-1H-indazole-3-carboxamide] | 7.00
CN(C)CCC(c1ccccc1)n1cc(NC(=O)c2n[nH]c3ccccc23)cn1 (stereo not shown) [Example 267, N-[1-[3-(dimethylamino)-1-phenyl-propyl]pyrazol-4-yl]-1H-indazole-3-carboxamide] | 7.11
CN(CCC(c1ccccc1)n1cc(NC(=O)c2n[nH]c3ccccc23)cn1)CC(F)(F)F (stereo not shown) [Example 269, N-[1-[3-[methyl(2,2,2-trifluoroethyl)a-mino]-1-phenyl-propyl]pyrazol-4-yl]-1H-indazole-3-carboxamide] | 6.98
CN(CCC(c1ccccc1)n1cc(NC(=O)c2n[nH]c3ccccc23)cn1)S(C)(=O)=O (stereo not shown) [Example 272, N-[1-[3-[methyl(methyl-sulfonyl)amino]-1-phenyl-propyl]pyrazol-4-yl]-1H-indazole-3-carboxamide] | 7.38
CN(CCC(c1ccccc1)n1cc(NC(=O)c2n[nH]c3ccccc23)cn1)CC(F)F (stereo not shown) [Example 274, N-[1-[3-[2,2-difluoroethyl(meth-yl)amino]-1-phenyl-propyl]pyrazol-4-yl]-1H-indazole-3-carboxamide] | 7.07
CN(C)CC(c1ccccc1)n1cc(NC(=O)c2n[nH]c3ccccc23)cn1 (stereo not shown) [Example 276, N-[1-[2-(dimethylamino)-1-phenyl-ethyl]pyrazol-4-yl]-1H-indazole-3-carboxamide] | 6.82
CS(=O)(=O)CCC(c1ccccc1)n1cc(NC(=O)c2n[nH]c3ccccc23)cn1 (stereo not shown) [Example 277, N-[1-(3-methylsulfonyl-1-phenyl-propyl)pyrazol-4-yl]-1H-indazole-3-carboxamide] | 6.94
CN(C)CCC(c1ccccc1)n1cc(NC(=O)c2n[nH]c3cc(-c4cn[nH]c4)cnc23)cn1 (stereo not shown) [Example 279, N-[1-[3-(dimethylamino)-1-phenyl-propyl]pyrazol-4-yl]-6-(1H-pyrazol-4-yl)-1H pyrazolo[4,3-b]pyridine-3-carboxamide] | 7.44

Stronger by pKi, values ahead:

pKi | SMILES
7.45 | O=C(Nc1cnn(C(CO)c2ccccc2)c1)c1n[nH]c2ccccc12 (stereo not shown) [Example 257, N-[1-(2-hydroxy-1-phenyl-ethyl)pyrazol-4-yl]-1H-indazole-3-carboxamide]
7.62 | CC(=O)N(C)CCC(c1ccccc1)n1cc(NC(=O)c2n[nH]c3ccccc23)cn1 (stereo not shown) [Example 265, N-[1-[3-[acetyl(meth-yl)amino]-1-phenyl-propyl]pyrazol-4-yl]-1H-indazole-3-carboxamide]
7.92 | N#CCn1cc(NC(=O)c2n[nH]c3cc(-c4cn[nH]c4)ccc23)cn1 [Example 260, N-[1-(cyanomethyl)py-razol-4-yl]-6-(1H-pyrazol-4-yl)-1H-indazole-3-carboxamide]
8.05 | CN(CCC(c1ccccc1)n1cc(NC(=O)c2n[nH]c3ccccc23)cn1)CC(F)(F)F (stereo not shown) [Example 270, N-[1-[3-[methyl(2,2,2-trifluoroethyl)a-mino]-1-phenyl-propyl]pyrazol-4-yl]-1H-indazole-3-carboxamide]
8.08 | CN(CCC(c1ccccc1)n1cc(NC(=O)c2n[nH]c3ccccc23)cn1)CC(F)F (stereo not shown) [Example 273, N-[1-[3-[2,2-difluoroethyl(meth-yl)amino]-1-phenyl-propyl]pyrazol-4-yl]-1H-indazole-3-carboxamide]
8.11 | CN(C)CC(c1ccccc1)n1cc(NC(=O)c2n[nH]c3ccccc23)cn1 (stereo not shown) [Example 275, N-[1-[2-(dimethylamino)-1-phenyl-ethyl]pyrazol-4-yl]-1H-indazole-3-carboxamide]
8.16 | CN(CCC(c1ccccc1)n1cc(NC(=O)c2n[nH]c3ccccc23)cn1)S(C)(=O)=O (stereo not shown) [Example 271]
8.22 | CN(C)CCC(c1ccccc1)n1cc(NC(=O)c2n[nH]c3ccccc23)cn1 (stereo not shown) [Example 268, N-[1-[3-(dimethylamino)-1-phenyl-propyl]pyrazol-4-yl]-1H-indazole-3-carboxamide]
8.25 | CN1CCC(Cn2cc(NC(=O)c3n[nH]c4cc(-c5cn[nH]c5)ccc34)cn2)CC1 [Example 258, N-[1-[(1-methyl-4-piperidyl)meth-yl]pyrazol-4-yl]-6-(1H-pyrazol-4-yl)-1H-indazole-3-carboxamide]
8.29 | CNCCC(c1ccccc1)n1cc(NC(=O)c2n[nH]c3ccccc23)cn1 (stereo not shown) [Example 263, N-[1-[3-(methylamino)-1-phenyl-propyl]pyrazol-4-yl]-1H-indazole-3-carboxamide]
8.32 | N#CCCn1cc(NC(=O)c2n[nH]c3cc(-c4cn[nH]c4)ccc23)cn1 [Example 261, N-[1-(2-cyanoethyl)py-razol-4-yl]-6-(1H-pyrazol-4-yl)-1H-indazole-3-carboxamide]
8.33 | O=C(Nc1cnn(CC2CNC2)c1)c1n[nH]c2cc(-c3cn[nH]c3)ccc12 [Example 262, N-[1-(azetidin-3-ylmethyl)pyrazol-4-yl]-6-(1H-pyrazol-4-yl)-1H-indazole-3-carboxamide]
8.56 | O=C(Nc1cnn(CC2CN(Cc3ccccc3)CCO2)c1)c1n[nH]c2cc(-c3cn[nH]c3)ccc12 (stereo not shown) [Example 259, N-[1-[(4-benzylmorpholin-2-yl)methyl]pyrazol-4-yl]-6-(1H-pyrazol-4-yl)-1H-indazole-3-carboxamide]
8.89 | CN(C)CCC(c1ccccc1)n1cc(NC(=O)c2n[nH]c3cc(-c4cn[nH]c4)cnc23)cn1 (stereo not shown) [Example 278, N-[1-[3-(dimethylamino)-1-phenyl-propyl]pyrazol-4-yl]-6-(1H-pyrazol-4-yl)-1H-pyrazolo[4,3-b]pyridine-3-carboxamide]
